# Results: patent US5063229A, “Imidazolo [1,2-a]pyrimidines and medical use thereof” (Roussel Ulcaf, priority 1986, dated 1991)
# Test system: rat peritoneal neutrophils
# Assay: Inhibition of ionophore-stimulated release of free arachidonic acid from [14C]-arachidonic acid pre-labelled rat peritoneal neutrophils
# Type: cell-based
# Conditions: read-out: IC50, concentration required to inhibit by 50% compared to controls the release of radiolabelled products into supernatant liquid
# Source text: The inhibition of ionophore-stimulated release of free arachidonic acid from [^14 C]-arachidonic acid pre-labelled rat peritoneal neutrophils was studied using modifications of the method of Ahnfelt-Ronne and Arrigoni-Martelli [Biochemical Pharmacol., (1982) Vol. 31, p. 2619]. The results below show the micromolar concentrations of test compound required to inhibit, by 50% compared to controls, the release of radiolabelled products into supernatant liquid (IC50 -μM).
row,IC50,Compound
1,6.8 µM,"C=C(C)C(=O)c1nc2nc(SC)c(CC)c(C)n2c1Br [Example 1, 1-(3-bromo-6-ethyl-5-methyl-7-methylthio-imidazo[1,2-a]pyrimidin-2-yl)-2-methyl-2-propen-1-one]"
2,17 µM,"C=C(C)C(=O)c1nc2nc(OC)c(CC)c(C)n2c1Br [Example 2, (3-bromo 6-ethyl 7-methoxy 5-methylimidazo [1,2-a]pyrimidin-2-yl) isopropenyl methanone]"
3,21 µM,"C=C(C)C(=O)c1nc2nc(OC)c(CC)c(C)n2c1Cl [Example 3, (3-chloro 6-ethyl 7-methoxy 5-methylimidazo [1,2-a]pyrimidin-2-yl) isopropenyl methanone]"
4,7.4 µM,C=C(C)C(=O)c1nc2nc(OC)cc(C)n2c1Br [Example 4]
5,1.7 µM,"C=CC(=O)c1nc2nc(OC)c(CC)c(C)n2c1Br [Example 5, (3-bromo 6-ethyl 7-methoxy 5-methylimidazo [1,2-a]pyrimidin-2-yl) ethenyl methanone]"
6,3.8 µM,"C=C(C)C(=O)c1cn(-c2ccc(CC)cc2)c(SC)n1 [Example 6, [1-(4-ethylphenyl) 2-imidazol-4-yl] isopropenyl methanone]"
7,2.5 µM,"C=C(C)C(=O)c1nc(SC)n(-c2ccc(CC)cc2)c1Br [Example 7, [1-(4-ethylphenyl) 5-bromo 2-thiomethylimidazol-4-yl] isopropenyl methanone]"
8,7.2 µM,"C=C(C)C(=O)c1nc(SC)n(-c2ccc(OC)cc2)c1Br [Example 8, [1-(4-methoxyphenyl) 5-bromo 2-thiomethylimidazol-4-yl] isopropenyl methanone]"
9,9.1 µM,"C=C(C)C(=O)c1nc(SC)n(-c2ccc(OC)cc2)c1Cl [Example 9, [1-(4-methoxyphenyl) 5-chloro 2-thiomethylimidazol-4-yl] isopropenyl methanone]"
10,10 µM,"C=C(C)C(=O)c1nc(SC)n(-c2ccc(C)cc2)c1Br [Example 10, [1-(4-methylphenyl) 5-bromo 2-thiomethylimidazol-4-yl] isopropenyl methanone]"
11,3.7 µM,"C=C(C)C(=O)c1nc(SC(C)C)n(-c2ccc(C)cc2)c1Br [Example 11, [1-(4-methylphenyl) 5-bromo 2-thioisopropylimidazol-4-yl] isopropenyl methanone]"
12,15 µM,"C=C(C)C(=O)c1nc(SC)n(-c2ccc(F)cc2)c1Br [Example 12, [1-(4-fluorophenyl) 5-bromo 2-thiomethylimidazol-4-yl] isopropenyl methanone]"
13,2.3 µM,"C=CC(=O)c1nc(SC)n(-c2ccc(OC)cc2)c1Br [Example 13, [1-(4-methoxyphenyl) 5-bromo 2-thiomethylimidazol-4-yl] ethenyl methanone]"
14,> 10 µM,"C=C(C)C(=O)c1nc(SC)n(-c2ccc(O)cc2)c1Br [Example 14, [5-bromo-1-(4-hydroxyphenyl)-2-methylthioimidazol-4-yl]-2-methyl-2-propen-1-one]"
15,17 µM,"C=C(C)C(=O)c1nc(SC(C)C)n(CC)c1Br [Example 15, (1-ethyl 5-bromo 2-thioisopropyl imidazol-4-yl) isopropenyl methanone]"
16,4.4 µM,"C=C(C)C(=O)c1nc([S+]([O-])C(C)C)n(-c2ccc(CC)cc2)c1Cl (stereo not drawn) [Example 16, [5-chloro-1-(4-ethylphenyl)-2-(prop-2-ylsulfinyl)-imidazol-4-yl]-2-methyl-2-propen-1-one]"
17,12 µM,"CCc1c(OC)nc2nc(C(=O)C#Cc3ccccc3)cn2c1C [Example 18, (6-ethyl 7-methoxy 5-methylimidazo [1,2-a]pyrimidin-2-yl) phenylethynyl methanone]"
18,16 µM,"CCc1c(OC)nc2nc(C(=O)C#CC(C)(C)C)cn2c1C [Example 19, 1-(6-ethyl 7-methoxy 5-methylimidazo [1,2-a]pyrimidin-2-yl) (3,3-dimethylbut-1-ynyl) methanone]"
19,4.2 µM,"CCc1c(OC)nc2nc(C(=O)C#CC(C)(C)C)c(Br)n2c1C [Example 20, (3-bromo 6-ethyl 7-methoxy 5-methylimidazo [1,2-a]pyrimidin-2-yl) (3,3-dimethylbut-1-ynyl) methanone]"
20,1.5 µM,"CCc1c(OC)nc2nc(C(=O)C#Cc3ccccc3)c(Br)n2c1C [Example 21, (3-bromo 6-ethyl 7-methoxy 5-methylimidazo [1,2-a]pyrimidin-2-yl) (2-phenylethy-1-yl) methanone]"
21,59 µM,"CCc1c(OC)nc2nc(C(=O)C#CCO)c(Br)n2c1C [Example 22, 1-(3-bromo-6-ethyl-7-methoxy-5-methyl-imidazo[1,2-a]pyrimidin-2-yl)-4-hydroxy-2-butyn-1-one]"
22,46 µM,"CCc1c(OC)nc2nc(C(=O)C#CCO)cn2c1C [Example 23, 1-(6-ethyl-7-methoxy-5-methylimidazo[1,2-a]pyrimidin-2-yl)-4-hydroxy-2-butyn-1-one]"
23,7.2 µM,"CC#CC(=O)c1nc2nc(OC)c(CC)c(C)n2c1Br [Example 24, (3-bromo 6-ethyl 7-methoxy 5-methylimidazo [1,2-a]pyrimidin-2-yl) (propyn-1-ynyl) methanone]"
24,28 µM,"C=C(C)C(=O)c1nc2ccccn2c1Br [Example 25, (3-bromoimidazo [1,2-a]pyridin-2-yl) isopropenyl methanone (chlorhydrate)]"
25,> 100 µM,"C=C(C)C(=O)c1cn2ccccc2n1 [Example 26, (imidazo [1,2-a]pyridin-2-yl) isopropenyl methanone]"
26,41 µM,"O=C(C#Cc1ccccc1)c1cn2ccccc2n1 [Example 27, (imidazo [1,2-a]pyridin-2-yl) (2-phenylethyn-1-yl) methanone]"
27,5.2 µM,"O=C(C#Cc1ccccc1)c1nc2ccccn2c1Br [Example 28, 3-bromoimidazo [1,2-a] pyridin-2-yl (2-phenylethyn-1-yl) methanone]"
